Results published in patent US10407409B2, “6-(5-hydroxy-1H-pyrazol-1-yl)nicotinamide inhibitors of PHD” (Takeda Pharmaceutical Company Limited, priority 2013, dated 2019).

Assays:
[1] = tested on: HIF1a protein in H9c2 rat cardiomyocytes; assay: Cell-based HIF-alpha stabilization assay (inhibition of PHD in cells); conditions: 24 hrs compound incubation, HIF1a protein by ELISA; for EC50: Rattus norvegicus, H9c2, 24 h, read-out: Inhibition of PHD in cells (pEC50) (converted)
In short: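 HIF1a stabilization was measured by ELISA on lysates of H9c2 rat cardiomyocytes after 24 h exposure to 11 serial compound concentrations, expressed relative to the desferrioxamine maximum. Curve fits gave EC50. EC50pos denotes the concentration producing half the desferrioxamine maximal response.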

[2] = molecular target: PHD2 enzyme (residues 181-417) (Homo sapiens (Human), UniProt Q9GZT9); assay: Inhibition of PHD enzyme (LC/MS peptide hydroxylation assay); assay type: biochemical; conditions: PHD2 (residues 181-417) 5 nM, 60 min pre-incubation; -log(IC50), IC50 molar
PHD2 enzyme (residues 181-417), sequence (Q9GZT9 181-417): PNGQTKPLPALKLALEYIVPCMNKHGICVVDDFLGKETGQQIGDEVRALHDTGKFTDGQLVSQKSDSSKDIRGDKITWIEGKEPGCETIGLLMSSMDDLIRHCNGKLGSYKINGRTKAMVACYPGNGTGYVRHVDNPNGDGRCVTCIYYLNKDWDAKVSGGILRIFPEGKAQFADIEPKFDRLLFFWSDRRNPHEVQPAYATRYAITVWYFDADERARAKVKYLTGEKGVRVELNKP
In short: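 Hydroxylated peptide quantified by LC/MS after 60 min turnover of 1 uM biotinylated peptide with 2 uM 2-oxoglutarate and 1 mM ascorbate, stopped by excess tight-binding inhibitor. Beforehand, 5 nM enzyme and compound were preincubated 60 min at RT, pH 7.3 HEPES/KCl/TCEP/FeCl2/BSA buffer. Values as pIC50 (−log molar IC50).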

PHD Inhibition (pIC50) [2]	SMILES	EC50 [1]	Inhibition of PHD in cells (pEC50) [1]
7.78	Cc1cc(C#N)ccc1-c1cnn(-c2ccc(C(=O)N3CCC(N(C)C)CC3)cn2)c1O [Example 416, 4-(1-(5-(4-(dimethylamino)piperidine-1-carbonyl)pyridin-2-yl)-5-hydroxy-1H-pyrazol-4-yl)-3-methylbenzonitrile]	1410 nM	
8.00	CCN(C)[C@@H]1CCCN(C(=O)c2ccc(-n3ncc(-c4ccc(C#N)cc4C)c3O)nc2)C1 [Example 382, (R)-4-(1-(5-(3-(ethyl(methyl)amino)piperidine-1-carbonyl)pyridin-2-yl)-5-hydroxy-1H-pyrazol-4-yl)-3-methylbenzonitrile]	977 nM	
6.73	N#Cc1ccc(-c2cnn(-c3ccc(C(=O)N4CCC[C@@H]4CN4CCCC4)cn3)c2O)cc1 [Example 364, (R)-4-(5-hydroxy-1-(5-(2-(pyrrolidin-1-ylmethyl)pyrrolidine-1-carbonyl)pyridin-2-yl)-1H-pyrazol-4-yl)benzonitrile]	7760 nM	
7.99	COCCCNC(=O)c1ccc(-n2ncc(-c3ccc(C#N)c(C)c3)c2O)nc1 [Example 402, 6-(4-(4-cyano-3-methylphenyl)-5-hydroxy-1H-pyrazol-1-yl)-N-(3-methoxypropyl)nicotinamide]	4370 nM	
8.29	Cc1cc(C#N)ccc1-c1cnn(-c2ccc(C(=O)N3CCC(N4CCOCC4)C3)cn2)c1O (stereo not shown) [Example 347, 4-(5-hydroxy-1-(5-(3-morpholinopyrrolidine-1-carbonyl)pyridin-2-yl)-1H-pyrazol-4-yl)-3-methylbenzonitrile]	631 nM	
8.36	Cc1c(-c2cnn(-c3ccc(C(=O)N4CCN(C(C)C)[C@H](C)C4)cn3)c2O)ccc(C#N)c1F [Example 337, (R)-2-fluoro-4-(5-hydroxy-1-(5-(4-isopropyl-3-methylpiperazine-1-carbonyl)pyridin-2-yl)-1H-pyrazol-4-yl)-3-methylbenzonitrile]	1350 nM	
8.22	CCCN1CCC(N(C)C(=O)c2ccc(-n3ncc(-c4ccc(C#N)cc4C)c3O)nc2)CC1 [Example 294, 6-(4-(4-cyano-2-methylphenyl)-5-hydroxy-1H-pyrazol-1-yl)-N-methyl-N-(1-propylpiperidin-4-yl)nicotinamide]	1120 nM	
7.88	Cc1cc(C#N)ccc1-c1cnn(-c2ccc(C(=O)N3CCN4CCC3CC4)cn2)c1O [Example 428, (S)-4-(1-(5-(1,4-diazabicyclo[3.2.2]nonane-4-carbonyl)pyridin-2-yl)-5-hydroxy-1H-pyrazol-4-yl)-3-methylbenzonitrile]	501 nM	
8.33	Cc1c(-c2cnn(-c3ccc(C(=O)N4CCC[C@@H](N(C)C5CC5)C4)cn3)c2O)ccc(C#N)c1F [Example 331, (R)-4-(1-(5-(3-(cyclopropyl(methyl)amino)piperidine-1-carbonyl)pyridin-2-yl)-5-hydroxy-1H-pyrazol-4-yl)-2-fluoro-3-methylbenzonitrile]	813 nM	
8.50	Cc1cc(C#N)ccc1-c1cnn(-c2ccc(C(=O)N3CCN(CC(F)(F)F)CC3)cn2)c1O [Example 312, 4-(5-hydroxy-1-(5-(4-(2,2,2-trifluoroethyl)piperazine-1-carbonyl)pyridin-2-yl)-1H-pyrazol-4-yl)-3-methylbenzonitrile]	1820 nM	
7.11	N#Cc1ccc(-c2cnn(-c3ccc(C(=O)NCC4CCOCC4)cn3)c2O)c(F)c1 [Example 221, 6-(4-(4-cyano-2-fluorophenyl)-5-hydroxy-1H-pyrazol-1-yl)-N-((tetrahydro-2H-pyran-4-yl)methyl)nicotinamide]	933 nM	

Continued, compound first:

SMILES	PHD Inhibition (pIC50) [2]	EC50 [1]	Inhibition of PHD in cells (pEC50) [1]
COCCC1(NC(=O)c2ccc(-n3ncc(-c4ccc(C#N)cc4)c3O)nc2)CC1 [Example 208, 6-(4-(4-cyanophenyl)-5-hydroxy-1H-pyrazol-1-yl)-N-(1-(2-methoxyethyl)cyclopropyl)nicotinamide]	7.8	269 nM	
COCC1(NC(=O)c2ccc(-n3ncc(-c4ccnc(OC)c4)c3O)nc2)CC1 [Example 205, 6-(5-hydroxy-4-(2-methoxypyridin-4-yl)-1H-pyrazol-1-yl)-N-(1-(methoxymethyl)cyclopropyl)nicotinamide]	6.89	631 nM	
COCC(NC(=O)c1ccc(-n2ncc(-c3ccc(C#N)cc3)c2O)nc1)C(C)C (stereo not shown) [Example 156, 6-(4-(4-cyanophenyl)-5-hydroxy-1H-pyrazol-1-yl)-N-(1-methoxy-3-methylbutan-2-yl)nicotinamide]	7.47	891 nM	
CCC(C)NC(=O)c1ccc(-n2ncc(-c3ccc(C#N)cc3)c2O)nc1 (stereo not shown) [Example 80, N-(sec-butyl)-6-(4-(4-cyanophenyl)-5-hydroxy-1H-pyrazol-1-yl)nicotinamide]	7.23	1070 nM	
COc1cc(-c2cnn(-c3ccc(C(=O)NCCCn4ccnc4)cn3)c2O)ccn1 [Example 35, N-(3-(1H-imidazol-1-yl)propyl)-6-(5-hydroxy-4-(2-methoxypyridin-4-yl)-1H-pyrazol-1-yl)nicotinamide]	7.8		5.50
CC(C)CNC(=O)c1ccc(-n2ncc(-c3ccc(C#N)cc3)c2O)nc1 [Example 160, 6-(4-(4-cyanophenyl)-5-hydroxy-1H-pyrazol-1-yl)-N-isobutylnicotinamide]	6.9	759 nM	
Cc1cc(C#N)ccc1-c1cnn(-c2ccc(C(=O)NCC3CN(C)CCO3)cn2)c1O (stereo not shown) [Example 101, 6-(4-(4-cyano-2-methylphenyl)-5-hydroxy-1H-pyrazol-1-yl)-N-((4-methylmorpholin-2-yl)methyl)nicotinamide]	8.1	158 nM	
C[C@@H](NC(=O)c1ccc(-n2ncc(-c3ccc(C#N)cc3)c2O)nc1)C(F)(F)F [Example 170, (R)-6-(4-(4-cyanophenyl)-5-hydroxy-1H-pyrazol-1-yl)-N-(1,1,1-trifluoropropan-2-yl)nicotinamide]	7.29	2750 nM	
CCCNC(=O)c1ccc(-n2ncc(-c3ccc(C#N)cc3C)c2O)nc1 [Example 60, 6-(4-(4-cyano-2-methylphenyl)-5-hydroxy-1H-pyrazol-1-yl)-N-propylnicotinamide]	7.14	200 nM	
COCC(C)(C)NC(=O)c1ccc(-n2ncc(-c3ccc(C#N)cc3)c2O)nc1 [Example 200, 6-(4-(4-cyanophenyl)-5-hydroxy-1H-pyrazol-1-yl)-N-(1-methoxy-2-methylpropan-2-yl)nicotinamide]	7.09	1100 nM	
N#Cc1cnn(-c2cnn(-c3ccc(C(=O)NCC4CCOCC4)cn3)c2O)c1 [Example 158, 6-(4-cyano-5′-hydroxy-1′H-[1,4′-bipyrazol]-1′-yl)-N-((tetrahydro-2H-pyran-4-yl)methyl)nicotinamide]	6.71	9550 nM	
COCCC(C)NC(=O)c1ccc(-n2ncc(-c3ccc(C#N)cc3)c2O)nc1 (stereo not shown) [Example 176, 6-(4-(4-cyanophenyl)-5-hydroxy-1H-pyrazol-1-yl)-N-(4-methoxybutan-2-yl)nicotinamide]	7.53	398 nM	
COc1cc(-c2cnn(-c3ccc(C(=O)NC4CCN(C5CC5)CC4)cn3)c2O)ccn1 [Example 41, N-(1-cyclopropylpiperidin-4-yl)-6-(5-hydroxy-4-(2-methoxypyridin-4-yl)-1H-pyrazol-1-yl)nicotinamide]	8	550 nM	
N#Cc1ccc(-c2cnn(-c3ccc(C(=O)NCCC4CCCOC4)cn3)c2O)cc1 (stereo not shown) [Example 178, 6-(4-(4-cyanophenyl)-5-hydroxy-1H-pyrazol-1-yl)-N-(2-(tetrahydro-2H-pyran-3-yl)ethyl)nicotinamide]	7.63	282 nM	
N#Cc1ccc(-c2cnn(-c3ccc(C(=O)NCCCOCC4CC4)cn3)c2O)cc1 [Example 118, 6-(4-(4-cyanophenyl)-5-hydroxy-1H-pyrazol-1-yl)-N-(3-(cyclopropylmethoxy)propyl)nicotinamide]	7.36	316 nM	
Cc1cc(C#N)ccc1-c1cnn(-c2ccc(C(=O)NC(CO)C3CCOC3)cn2)c1O (stereo not shown) [Example 71, 6-(4-(4-cyano-2-methylphenyl)-5-hydroxy-1H-pyrazol-1-yl)-N-(2-hydroxy-1-(tetrahydrofuran-3-yl)ethyl)nicotinamide]	7.24	269 nM	
Cc1cc(C#N)ccc1-c1cnn(-c2ccc(C(=O)NC(C)C)cn2)c1O [Example 128, 6-(4-(4-cyano-2-methylphenyl)-5-hydroxy-1H-pyrazol-1-yl)-N-isopropylnicotinamide]	7.04	145 nM	
Cc1cc(C#N)ccc1-c1cnn(-c2ccc(C(=O)NCCCN3CCCCC3)cn2)c1O [Example 99, 6-(4-(4-cyano-2-methylphenyl)-5-hydroxy-1H-pyrazol-1-yl)-N-(3-(piperidin-1-yl)propyl)nicotinamide]	7.9	53.7 nM	
